# Experimental data as given in patent publication US20250122239A1 (K BENHAVNS UNIVERSITET, published 2025).
# Ends that are not written are not given here.
# Experiments:
# lean mice = test: food intake in chow fed lean mice, shortened GLP-1-NT combination peptides (Example 9); format: in vivo; settings: 100 nmol/kg, single SC injection, chow fed lean mice fasted overnight
# Protocol: Chow fed lean mice fasted overnight were injected once SC in the beginning of the light cycle and food returned. Food intake measured continuously after injection in an indirect calorimetry system. Food intake was analysed using repeated measures two-way ANOVA followed by a Tukey's post hoc test.
# [1] = molecular target: human neurotensin receptor NTSR1 (pCMVhNTSR 1, transiently expressed in HEK293 cells) (human, UniProt P30989 1-418); test: cell-based or functional assay
# Chain of human neurotensin receptor NTSR1 (pCMVhNTSR 1, transiently expressed in HEK293 cells) (P30989 whole entry): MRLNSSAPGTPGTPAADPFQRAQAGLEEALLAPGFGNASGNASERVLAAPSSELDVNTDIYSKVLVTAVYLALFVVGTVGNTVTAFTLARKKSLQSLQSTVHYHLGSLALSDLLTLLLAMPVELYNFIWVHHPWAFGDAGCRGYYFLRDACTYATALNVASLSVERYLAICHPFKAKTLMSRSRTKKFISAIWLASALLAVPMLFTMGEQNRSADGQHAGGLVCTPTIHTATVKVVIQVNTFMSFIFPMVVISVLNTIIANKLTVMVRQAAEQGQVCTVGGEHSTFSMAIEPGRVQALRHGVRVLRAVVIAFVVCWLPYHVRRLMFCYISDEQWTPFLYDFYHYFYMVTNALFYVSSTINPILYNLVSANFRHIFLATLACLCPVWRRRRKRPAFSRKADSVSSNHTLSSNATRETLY
"inositol phosphate (IP) accumulation, LogEC50 [1]",Molecule,food intake in comparison to saline (lean mice)
,HAEFTFTSDVSSYLEGQKKGGELYENKPRRPYIL-acid (HAEFTFTSDVSSYLEGQKKGGELYENKPRRPYIL-OH) [Peptide 10],p<0.001 peptide 10 vs. saline
,HAEGTFTSDVSSYLEGQELYENKPRRPYIL-acid (HAEGTFTSDVSSYLEGQELYENKPRRPYIL-OH) [Peptide 9],p<0.05 peptide 9 vs. saline
-8.5,HAEGTFTSDVSSYLEGQAAKEFIAWLVKGRLYENKPRRPYIL [GLP-1/NT fusion peptide (SEQ ID NO: 45)],
